The supplement of paper PMC10307832

Experiments:
Experiment in all cases: relative viability (nuclei count vs DMSO), 5 days (fraction); higher = more cells survive
Pemetrexed + Pictilisib = compound: Nc1nc2[nH]cc(CCc3ccc(C(=O)N[C@@H](CCC(=O)O)C(=O)O)cc3)c2c(=O)[nH]1 [Pemetrexed] + CS(=O)(=O)N1CCN(Cc2cc3nc(-c4cccc5[nH]ncc45)nc(N4CCOCC4)c3s2)CC1 [Pictilisib] (partner 1 µM)
Summary of the method: (§1)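 Lung cancer cell lines were pin-tool dosed in 1536-well plates on the day after seeding, with either a lone drug or a fixed anchor-drug dose plus five library-drug doses (not always all listed) in √10 steps. Nuclei were counted on 4× images after 5 days. Relative viability is the ratio of treated-well to vehicle-well nuclei counts, with each value a median of duplicate plates.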

Pemetrexed + Navitoclax = compound: Nc1nc2[nH]cc(CCc3ccc(C(=O)N[C@@H](CCC(=O)O)C(=O)O)cc3)c2c(=O)[nH]1 [Pemetrexed] + CC1(C)CCC(c2ccc(Cl)cc2)=C(CN2CCN(c3ccc(C(=O)NS(=O)(=O)c4ccc(N[C@H](CCN5CCOCC5)CSc5ccccc5)c(S(=O)(=O)C(F)(F)F)c4)cc3)CC2)C1 [Navitoclax] (partner 0.5 µM)
Summary of the method: as §1

Idelalisib + Alpelisib = compound: CC[C@H](Nc1ncnc2[nH]cnc12)c1nc2cccc(F)c2c(=O)n1-c1ccccc1 [Idelalisib] + Cc1nc(NC(=O)N2CCC[C@H]2C(N)=O)sc1-c1ccnc(C(C)(C)C(F)(F)F)c1 [Alpelisib] (partner 2 µM)
Summary of the method: as §1

Idelalisib + AZD7762 = compound: CC[C@H](Nc1ncnc2[nH]cnc12)c1nc2cccc(F)c2c(=O)n1-c1ccccc1 [Idelalisib] + NC(=O)Nc1cc(-c2cccc(F)c2)sc1C(=O)N[C@H]1CCCNC1 [AZD7762] (partner 0.2 µM)
Summary of the method: as §1

LC-2-ad showed a relative viability (Pemetrexed + Pictilisib; first compound 0.002 µM) of 0.402, a relative viability (Pemetrexed + Pictilisib; first compound 0.006325 µM) of 0.306 and a relative viability (Pemetrexed + Pictilisib; first compound 0.02 µM) of 0.428. It also gave a relative viability (Pemetrexed + Pictilisib; first compound 0.06325 µM) of 0.211, a relative viability (Pemetrexed + Pictilisib; first compound 0.2 µM) of 0.123 and a relative viability (Pemetrexed + Navitoclax; first compound 0.002 µM) of 0.304. It also gave a relative viability (Pemetrexed + Navitoclax; first compound 0.006325 µM) of 0.437, a relative viability (Pemetrexed + Navitoclax; first compound 0.02 µM) of 0.363 and a relative viability (Pemetrexed + Navitoclax; first compound 0.06325 µM) of 0.159. It also gave a relative viability (Pemetrexed + Navitoclax; first compound 0.2 µM) of 0.162, a relative viability (Idelalisib + Alpelisib; first compound 0.04 µM) of 0.887 and a relative viability (Idelalisib + Alpelisib; first compound 0.1265 µM) of 0.683. The relative viability (Idelalisib + Alpelisib; first compound 0.4 µM) was 0.959, the relative viability (Idelalisib + Alpelisib; first compound 1.265 µM) was 0.893 and the relative viability (Idelalisib + Alpelisib; first compound 4 µM) was 0.637. It also gave a relative viability (Idelalisib + AZD7762; first compound 0.04 µM) of 0.826, a relative viability (Idelalisib + AZD7762; first compound 0.1265 µM) of 0.86 and a relative viability (Idelalisib + AZD7762; first compound 0.4 µM) of 0.734. It also gave a relative viability (Idelalisib + AZD7762; first compound 1.265 µM) of 0.782 and a relative viability (Idelalisib + AZD7762; first compound 4 µM) of 0.632.
In the case of LCLC-97TM1, the relative viability (Pemetrexed + Pictilisib; first compound 0.002 µM) is reported as 0.163, the relative viability (Pemetrexed + Pictilisib; first compound 0.006325 µM) is reported as 0.159 and the relative viability (Pemetrexed + Pictilisib; first compound 0.02 µM) is reported as 0.173. For the same cell line, the relative viability (Pemetrexed + Pictilisib; first compound 0.06325 µM) was 0.133, the relative viability (Pemetrexed + Pictilisib; first compound 0.2 µM) was 0.115 and the relative viability (Pemetrexed + Navitoclax; first compound 0.002 µM) was 0.393. It also gave a relative viability (Pemetrexed + Navitoclax; first compound 0.006325 µM) of 0.279, a relative viability (Pemetrexed + Navitoclax; first compound 0.02 µM) of 0.674 and a relative viability (Pemetrexed + Navitoclax; first compound 0.06325 µM) of 0.375. The relative viability (Pemetrexed + Navitoclax; first compound 0.2 µM) was 0.394, the relative viability (Idelalisib + Alpelisib; first compound 0.04 µM) was 0.274 and the relative viability (Idelalisib + Alpelisib; first compound 0.1265 µM) was 0.211. It also gave a relative viability (Idelalisib + Alpelisib; first compound 1.265 µM) of 0.284, a relative viability (Idelalisib + Alpelisib; first compound 4 µM) of 0.168 and a relative viability (Idelalisib + AZD7762; first compound 0.04 µM) of 0.199. For the same cell line, the relative viability (Idelalisib + AZD7762; first compound 0.1265 µM) was 0.382, the relative viability (Idelalisib + AZD7762; first compound 0.4 µM) was 0.274 and the relative viability (Idelalisib + AZD7762; first compound 1.265 µM) was 0.107. For the same cell line, the relative viability (Idelalisib + AZD7762; first compound 4 µM) was 0.339.
Work on NCI-H1915 yielded a relative viability (Pemetrexed + Pictilisib; first compound 0.002 µM) of 0.786, a relative viability (Pemetrexed + Pictilisib; first compound 0.006325 µM) of 0.933 and a relative viability (Pemetrexed + Pictilisib; first compound 0.02 µM) of 1.13. The relative viability (Pemetrexed + Pictilisib; first compound 0.06325 µM) was 0.929, the relative viability (Pemetrexed + Pictilisib; first compound 0.2 µM) was 0.957 and the relative viability (Pemetrexed + Navitoclax; first compound 0.002 µM) was 0.773. For the same cell line, the relative viability (Pemetrexed + Navitoclax; first compound 0.006325 µM) was 0.757, the relative viability (Pemetrexed + Navitoclax; first compound 0.02 µM) was 0.772 and the relative viability (Pemetrexed + Navitoclax; first compound 0.06325 µM) was 0.764. It also gave a relative viability (Pemetrexed + Navitoclax; first compound 0.2 µM) of 0.783, a relative viability (Idelalisib + Alpelisib; first compound 0.04 µM) of 1.14 and a relative viability (Idelalisib + Alpelisib; first compound 0.1265 µM) of 1.11. For the same cell line, the relative viability (Idelalisib + Alpelisib; first compound 0.4 µM) was 1.03, the relative viability (Idelalisib + Alpelisib; first compound 1.265 µM) was 1.11 and the relative viability (Idelalisib + Alpelisib; first compound 4 µM) was 1.04. The relative viability (Idelalisib + AZD7762; first compound 0.04 µM) was 0.766, the relative viability (Idelalisib + AZD7762; first compound 0.1265 µM) was 0.687 and the relative viability (Idelalisib + AZD7762; first compound 0.4 µM) was 0.643. It also gave a relative viability (Idelalisib + AZD7762; first compound 1.265 µM) of 0.552 and a relative viability (Idelalisib + AZD7762; first compound 4 µM) of 0.68.
With NCI-H3122 the relative viability (Pemetrexed + Pictilisib; first compound 0.002 µM) was 0.6, the relative viability (Pemetrexed + Pictilisib; first compound 0.006325 µM) was 0.584 and the relative viability (Pemetrexed + Pictilisib; first compound 0.02 µM) was 0.628. The relative viability (Pemetrexed + Pictilisib; first compound 0.06325 µM) was 0.526, the relative viability (Pemetrexed + Pictilisib; first compound 0.2 µM) was 0.338 and the relative viability (Pemetrexed + Navitoclax; first compound 0.002 µM) was 0.981. The relative viability (Pemetrexed + Navitoclax; first compound 0.006325 µM) was 1.06, the relative viability (Pemetrexed + Navitoclax; first compound 0.02 µM) was 1.03 and the relative viability (Pemetrexed + Navitoclax; first compound 0.06325 µM) was 1.01. The relative viability (Pemetrexed + Navitoclax; first compound 0.2 µM) was 0.826, the relative viability (Idelalisib + Alpelisib; first compound 0.04 µM) was 0.709 and the relative viability (Idelalisib + Alpelisib; first compound 0.1265 µM) was 0.782. It also gave a relative viability (Idelalisib + Alpelisib; first compound 0.4 µM) of 0.685, a relative viability (Idelalisib + Alpelisib; first compound 1.265 µM) of 0.777 and a relative viability (Idelalisib + Alpelisib; first compound 4 µM) of 0.631. It also gave a relative viability (Idelalisib + AZD7762; first compound 0.04 µM) of 0.949, a relative viability (Idelalisib + AZD7762; first compound 0.1265 µM) of 1.01 and a relative viability (Idelalisib + AZD7762; first compound 0.4 µM) of 1.01. The relative viability (Idelalisib + AZD7762; first compound 1.265 µM) was 0.785 and the relative viability (Idelalisib + AZD7762; first compound 4 µM) was 0.998.
Cell Line NCI-H1993 has a relative viability (Pemetrexed + Pictilisib; first compound 0.002 µM) of 0.899, a relative viability (Pemetrexed + Pictilisib; first compound 0.006325 µM) of 0.97 and a relative viability (Pemetrexed + Pictilisib; first compound 0.02 µM) of 0.819. It also gave a relative viability (Pemetrexed + Pictilisib; first compound 0.06325 µM) of 0.743, a relative viability (Pemetrexed + Pictilisib; first compound 0.2 µM) of 0.882 and a relative viability (Pemetrexed + Navitoclax; first compound 0.002 µM) of 0.808. The relative viability (Pemetrexed + Navitoclax; first compound 0.006325 µM) was 0.832, the relative viability (Pemetrexed + Navitoclax; first compound 0.02 µM) was 0.859 and the relative viability (Pemetrexed + Navitoclax; first compound 0.06325 µM) was 0.917. It also gave a relative viability (Pemetrexed + Navitoclax; first compound 0.2 µM) of 0.804, a relative viability (Idelalisib + Alpelisib; first compound 0.04 µM) of 0.691 and a relative viability (Idelalisib + Alpelisib; first compound 0.1265 µM) of 0.592. For the same cell line, the relative viability (Idelalisib + Alpelisib; first compound 0.4 µM) was 0.679, the relative viability (Idelalisib + Alpelisib; first compound 1.265 µM) was 0.665 and the relative viability (Idelalisib + Alpelisib; first compound 4 µM) was 0.667. For the same cell line, the relative viability (Idelalisib + AZD7762; first compound 0.04 µM) was 0.647, the relative viability (Idelalisib + AZD7762; first compound 0.1265 µM) was 0.839 and the relative viability (Idelalisib + AZD7762; first compound 0.4 µM) was 0.652. For the same cell line, the relative viability (Idelalisib + AZD7762; first compound 1.265 µM) was 0.714 and the relative viability (Idelalisib + AZD7762; first compound 4 µM) was 0.623.
NCI-H2405 showed a relative viability (Pemetrexed + Pictilisib; first compound 0.002 µM) of 0.455, a relative viability (Pemetrexed + Pictilisib; first compound 0.006325 µM) of 0.436 and a relative viability (Pemetrexed + Pictilisib; first compound 0.02 µM) of 0.507. For the same cell line, the relative viability (Pemetrexed + Pictilisib; first compound 0.06325 µM) was 0.474, the relative viability (Pemetrexed + Pictilisib; first compound 0.2 µM) was 0.355 and the relative viability (Pemetrexed + Navitoclax; first compound 0.002 µM) was 1.13. The relative viability (Pemetrexed + Navitoclax; first compound 0.006325 µM) was 0.882, the relative viability (Pemetrexed + Navitoclax; first compound 0.02 µM) was 0.907 and the relative viability (Pemetrexed + Navitoclax; first compound 0.06325 µM) was 0.778. For the same cell line, the relative viability (Pemetrexed + Navitoclax; first compound 0.2 µM) was 0.776, the relative viability (Idelalisib + Alpelisib; first compound 0.04 µM) was 0.811 and the relative viability (Idelalisib + Alpelisib; first compound 0.1265 µM) was 0.642. The relative viability (Idelalisib + Alpelisib; first compound 0.4 µM) was 0.537, the relative viability (Idelalisib + Alpelisib; first compound 1.265 µM) was 0.683 and the relative viability (Idelalisib + Alpelisib; first compound 4 µM) was 0.544. For the same cell line, the relative viability (Idelalisib + AZD7762; first compound 0.04 µM) was 0.821, the relative viability (Idelalisib + AZD7762; first compound 0.1265 µM) was 0.779 and the relative viability (Idelalisib + AZD7762; first compound 0.4 µM) was 0.534. The relative viability (Idelalisib + AZD7762; first compound 1.265 µM) was 0.601 and the relative viability (Idelalisib + AZD7762; first compound 4 µM) was 0.705.
